According to PMC6941952, “A homogeneous bioluminescent immunoassay to probe cellular signaling pathway regulation” (Communications Biology, 2020):
Several values for one entry are separate records, joined by “and”; a condition that tells them apart may be missing. Equal values may be shown once.

Assays:
Set-up in all cases: species or system human
AKT Phospho-Ser473 = test: NanoBiT p-AKT cell-based immunoassay in MCF-7 cells; conditions: for P-AKT (% compared to no LY294002) / P-AKT, Raw data / P-AKT, Subtract reagent background: single replicates
Description: (§1) Prior to NanoBiT Cell-Based Immunoassay, 50,000 cells were seeded in 160 µl of complete growth media per well of a 96-well plate and incubated overnight. The cells were checked under microscope and it was determined that 50,000 cells per well in 96-well plate is under 90% confluency for all cells tested. If necessary, the cell culture media were replaced with serum-free media after the cells were stably adherent on the plate and incubated overnight. To treat cells with activators or inhibitors, medium was changed to 30 µl of medium containing inhibitors. If activation of a specific pathway is needed, the cells were stimulated with 10 µl of medium containing activators. To lyse the cells, 10 µl of lysis buffer containing 0.1% digitonin diluted in 1X immunoassay buffer with protease and phosphatase inhibitors was added and the plates were mixed vigorously for 20 min. Then, 50 µl of an antibody mix containing two primary antibodies against the target protein and NanoBiT detecting antibodies (0.3 µl each per well), diluted in 1X immunoassay buffer was added to the lysates. The plates were incubated at 23 °C for 90 min, followed by the addition of 25 µl of Nano-Glo® reagent consisting of Nano-Glo® Luciferase Assay Substrate mixed with 1X immunoassay buffer. Luminescence was measured using a plate-reading luminometer.
(§2) Single dose or dose response inhibitor treatments were performed prior to activation of the pathways as follows. For IκBα, the cells were treated in 30 µl medium with IKK16 or MG132 for 60 min before the addition of 10 µl of DMEM containing appropriate concentration of TNFα. To measure phosphorylation of AKT or STAT3, the corresponding NanoBiT immunoassays were developed with MCF-7 or A431 cells, respectively, according the same scheme used to develop the IκBα assay using the primary antibodies for AKT and STAT3 described in the reagents section. For the AKT assay, MCF-7 cells were incubated overnight in phenol-red free DMEM medium (Gibco #21063-029) without serum. Treatment with LY294002 was performed in 30 µl medium and cells were incubated for 60 min before the addition of 1 µM Insulin. To measure STAT3 phosphorylation, A431 cells were incubated overnight in DMEM medium without serum. […] After addition of the stimulators, the cells were incubated for additional times as follows. IκBα phosphorylation and degradation analyses required both time courses and single time points as described in figures. […] The NanoBiT immunoassay protocol was followed as described above.
(§3) All 96-well assay plates were read using a GloMax® 96 Microplate Luminometer from Promega. The instrument was set to 0.5 s integration time. In order to obtain net change of signal, the reagent background values (signal from the well containing all reagent except primary antibodies) were subtracted from the sample values. To plot and analyze the data, Microsoft Excel and GraphPad Prism® Software were used. IC50 values were determined by using a nonlinear regression fit to a sigmoidal dose response (variable slope).

total AKT = test: NanoBiT cell-based immunoassay, total AKT in MCF-7 cells; conditions: for total level of AKT protein: MCF-7 cells, insulin 1 µM 10 min, LY294002 20 µM 1 h
Description: as §1, §2, §3

STAT3 Phospho-Tyr705 = test: NanoBiT pSTAT3 cell-based immunoassay in A431 cells; conditions: substance alone
Description: as §1, with “The cells were checked under microscope and it was determined that 50,000 cells per well in 96-well plate is under 90% confluency for all cells tested.” left out
as §2, with “For the AKT assay, MCF-7 cells were incubated overnight in phenol-red free DMEM medium (Gibco #21063-029) without serum.” left out
as §3

total STAT3 = test: NanoBiT cell-based immunoassay, total STAT3 in A431 cells; conditions: substance alone
Description: as §1, with “The cells were checked under microscope and it was determined that 50,000 cells per well in 96-well plate is under 90% confluency for all cells tested.” left out
Single dose or dose response inhibitor treatments were performed prior to activation of the pathways as follows. For IκBα, the cells were treated in 30 µl medium with IKK16 or MG132 for 60 min before the addition of 10 µl of DMEM containing appropriate concentration of TNFα. To measure phosphorylation of AKT or STAT3, the corresponding NanoBiT immunoassays were developed with MCF-7 or A431 cells, respectively, according the same scheme used to develop the IκBα assay using the primary antibodies for AKT and STAT3 described in the reagents section. […] Treatment with LY294002 was performed in 30 µl medium and cells were incubated for 60 min before the addition of 1 µM Insulin. […]
All 96-well assay plates were read using a GloMax® 96 Microplate Luminometer from Promega. […] IC50 values were determined by using a nonlinear regression fit to a sigmoidal dose response (variable slope).

[1] = LY294002 0.00190735 uM, Insulin 1 uM
[2] = LY294002 0.00762939 uM, Insulin 1 uM
[3] = LY294002 0.0305176 uM, Insulin 1 uM
[4] = LY294002 0.12207 uM, Insulin 1 uM
[5] = LY294002 0.488281 uM, Insulin 1 uM
[6] = LY294002 1.95312 uM, Insulin 1 uM
[7] = LY294002 7.8125 uM, Insulin 1 uM
[8] = LY294002 31.25 uM, Insulin 1 uM
[9] = background subtracted, average of replicates
[10] = substance alone, background subtracted, average of replicates
[11] = substance alone, single replicates

Compound: O=c1cc(N2CCOCC2)oc2c(-c3ccccc3)cccc12 [LY294002, 2-(4-morpholinyl)-8-phenyl-4H-1-benzopyran-4-one]
- IC50 (AKT Phospho-Ser473; Homo sapiens, MCF7, MCF-7 cells, pretreated 1 h, insulin 1 µM 10 min, read-out: IC50, inhibition of AKT phosphorylation after insulin treatment): 8.89 µM
- P-AKT (% compared to no LY294002), Average (AKT Phospho-Ser473; LY294002 0.00190735 uM, Insulin 1 uM, average of replicates): 98.2%
- P-AKT (% compared to no LY294002) (AKT Phospho-Ser473; [1]): 99.8% and 97.4% and 97.5%
- P-AKT, Raw data (AKT Phospho-Ser473; [1]): 2596000 and 2655000 and 2614000
- P-AKT, Subtract reagent background (AKT Phospho-Ser473; [1]): 2495800 and 2454800 and 2436800
- P-AKT (% compared to no LY294002), Average (AKT Phospho-Ser473; LY294002 0.00762939 uM, Insulin 1 uM, average of replicates): 100.2%
- P-AKT (% compared to no LY294002) (AKT Phospho-Ser473; [2]): 101.9% and 99.8% and 98.9%
- P-AKT, Raw data (AKT Phospho-Ser473; [2]): 2632000 and 2707000 and 2673000
- P-AKT, Subtract reagent background (AKT Phospho-Ser473; [2]): 2548800 and 2514800 and 2473800
- P-AKT (% compared to no LY294002), Average (AKT Phospho-Ser473; LY294002 0.0305176 uM, Insulin 1 uM, average of replicates): 99.6%
- P-AKT (% compared to no LY294002) (AKT Phospho-Ser473; [3]): 100.5% and 98.7% and 99.6%
- P-AKT, Raw data (AKT Phospho-Ser473; [3]): 2646000 and 2668000 and 2645000
- P-AKT, Subtract reagent background (AKT Phospho-Ser473; [3]): 2511750 and 2488750 and 2489750
- P-AKT (% compared to no LY294002), Average (AKT Phospho-Ser473; LY294002 0.12207 uM, Insulin 1 uM, average of replicates): 97.0%
- P-AKT (% compared to no LY294002) (AKT Phospho-Ser473; [4]): 98.2% and 96.0% and 96.8%
- P-AKT, Raw data (AKT Phospho-Ser473; [4]): 2577000 and 2614000 and 2578000
- P-AKT, Subtract reagent background (AKT Phospho-Ser473; [4]): 2456500 and 2420500 and 2419500
- P-AKT (% compared to no LY294002), Average (AKT Phospho-Ser473; LY294002 0.488281 uM, Insulin 1 uM, average of replicates): 97.0%
- P-AKT (% compared to no LY294002) (AKT Phospho-Ser473; [5]): 100.1% and 96.2% and 94.5%
- P-AKT, Raw data (AKT Phospho-Ser473; [5]): 2521000 and 2661000 and 2582000
- P-AKT, Subtract reagent background (AKT Phospho-Ser473; [5]): 2503600 and 2424600 and 2363600
- P-AKT (% compared to no LY294002), Average (AKT Phospho-Ser473; LY294002 1.95312 uM, Insulin 1 uM, average of replicates): 89.9%
- P-AKT (% compared to no LY294002) (AKT Phospho-Ser473; [6]): 90.1% and 89.4%
- P-AKT, Raw data (AKT Phospho-Ser473; [6]): 2390000 and 2409000 and 2425000
- P-AKT, Subtract reagent background (AKT Phospho-Ser473; [6]): 2253650 and 2269650 and 2234650
- P-AKT (% compared to no LY294002), Average (AKT Phospho-Ser473; LY294002 7.8125 uM, Insulin 1 uM, average of replicates): 57.7%
- P-AKT (% compared to no LY294002) (AKT Phospho-Ser473; [7]): 58.2% and 58.0% and 57.0%
- P-AKT, Raw data (AKT Phospho-Ser473; [7]): 1581000 and 1612000 and 1617000
- P-AKT, Subtract reagent background (AKT Phospho-Ser473; [7]): 1455800 and 1460800 and 1424800
- P-AKT (% compared to no LY294002), Average (AKT Phospho-Ser473; LY294002 31.25 uM, Insulin 1 uM, average of replicates): 11.5%
- P-AKT (% compared to no LY294002) (AKT Phospho-Ser473; [8]): 11.5% and 11.7% and 11.4%
- P-AKT, Raw data (AKT Phospho-Ser473; [8]): 439900 and 442300 and 448200
- P-AKT, Subtract reagent background (AKT Phospho-Ser473; [8]): 288200 and 294100 and 285800
- P-AKT (% compared to no LY294002), Average (AKT Phospho-Ser473; LY294002 500 uM, Insulin 1 uM, average of replicates): 1.5%
- P-AKT (% compared to no LY294002) (AKT Phospho-Ser473; LY294002 500 uM, Insulin 1 uM): 1.5% and 1.4% and 1.6%
- P-AKT, Raw data (AKT Phospho-Ser473; LY294002 500 uM, Insulin 1 uM): 166500 and 165600 and 161400
- P-AKT, Subtract reagent background (AKT Phospho-Ser473; LY294002 500 uM, Insulin 1 uM): 38600 and 34400 and 39500
- P-AKT (% compared to no LY294002), Average (AKT Phospho-Ser473; LY294002 […], Insulin 1 uM, average of replicates): 1.8%
- insulin-induced increase in AKT phosphorylation (AKT Phospho-Ser473; MCF-7 cells, 20 µM 1 h pretreatment, insulin 1 µM 10 min): suppressed
- total level of AKT protein (total AKT): stayed constant

Compound: IL-6
- P-STAT3, Average (STAT3 Phospho-Tyr705; [9]): 418850
- P-STAT3 Raw data (STAT3 Phospho-Tyr705; single replicates): 458600 and 528900 and 577100
- P-STAT3 Subtract reagent background (STAT3 Phospho-Tyr705; single replicates): 355917 and 426217 and 474417
- Total STAT3, Average (total STAT3; [9]): 1196983
- Total Stat3, Raw data (total STAT3; single replicates): 1090000 and 1448000
- Total Stat3, Subtract reagent background (total STAT3; single replicates): 1345317 and 987317

Compound: insulin: Insulin (#I-0516) from Sigma-Aldrich, AKT pathway stimulator
- AKT phosphorylation over the level in non-treated cells (AKT Phospho-Ser473; MCF-7 cells, insulin 1 µM 10 min): more than 20 fold
- P-AKT, Average (AKT Phospho-Ser473; [10]): 2201625
- P-AKT, Raw data (AKT Phospho-Ser473; substance alone): 2263000 and 2421000 and 2357000 and 2406000
- P-AKT, Subtract reagent background (AKT Phospho-Ser473; substance alone): 2102700 and 2260800 and 2195400 and 2247600
- total level of AKT protein (total AKT): stayed constant
- Total AKT, Average (total AKT; [10]): 108225
- Total AKT, Raw data (total AKT; [11]): 265700 and 270200 and 257000 and 278000
- Total AKT, Subtract reagent background (total AKT; [11]): 121700 and 104800 and 109800 and 96600
